Data published in ChEMBL document CHEMBL1140195, “Synthesis, screening for antitubercular activity and 3D-QSAR studies of substituted N-phenyl-6-methyl-2-oxo-4-phenyl-1,2,3,4-tetrahydro-pyrimidine-5-carboxamides” (2008).
In brackets after ≈: the same amount, converted by molar mass.

Tests used:
Format in all cases: functional
[1] = system: Mycobacterium tuberculosis; assay: Antitubercular activity against Mycobacterium tuberculosis H37Rv
[2] = system: Mycobacterium tuberculosis; assay: Antitubercular activity against Mycobacterium tuberculosis H37Rv at 6.25 ug/mL relative to control
[3] = system: Mycobacterium tuberculosis; assay: Antitubercular activity against Mycobacterium tuberculosis

Structure (SMILES) | MIC [1] [µg/mL] | inhibition at 6.25 µg/mL [2] [%] | MIC [3] [µg/mL]
COc1ccc(NC(=O)C2=C(C)NC(=O)NC2c2ccc([N+](=O)[O-])cc2)cc1 (centres undefined) | > 6.25 | 21 | –
CC1=C(C(=O)Nc2ccccc2F)C(c2ccc(O)cc2)NC(=O)N1 (centres undefined) | > 6.25 | 18 | –
CC1=C(C(=O)Nc2ccccc2Cl)C(c2ccccc2[N+](=O)[O-])NC(=O)N1 (centres undefined) | > 6.25 | 11 | –
CC1=C(C(=O)Nc2ccc(C)cc2C)C(c2ccc(O)cc2)NC(=O)N1 (centres undefined) | > 6.25 | 12 | –
CC1=C(C(=O)Nc2ccc(F)c(Cl)c2)C(c2ccc([N+](=O)[O-])cc2)NC(=O)N1 (centres undefined) | > 6.25 | 22 | –
CC1=C(C(=O)Nc2ccc(F)c(Cl)c2)C(c2cccc([N+](=O)[O-])c2)NC(=O)N1 (centres undefined) | > 6.25 | 29 | –
CC1=C(C(=O)Nc2ccc(Cl)cc2)C(c2ccc([N+](=O)[O-])cc2)NC(=O)N1 (centres undefined) | > 6.25 | 9 | –
CC1=C(C(=O)Nc2ccc(Cl)cc2)C(c2cccc([N+](=O)[O-])c2)NC(=O)N1 (centres undefined) | > 6.25 | 29 | –
CC1=C(C(=O)Nc2ccc(C)c(C)c2)C(c2ccc([N+](=O)[O-])cc2)NC(=O)N1 (centres undefined) | > 6.25 | 13 | –
CC1=C(C(=O)Nc2ccc(C)cc2C)C(c2ccc([N+](=O)[O-])cc2)NC(=O)N1 (centres undefined) | > 6.25 | 12 | –
CC1=C(C(=O)Nc2ccccc2F)C(c2cccc([N+](=O)[O-])c2)NC(=O)N1 (centres undefined) | > 6.25 | 24 | –
CC1=C(C(=O)Nc2ccc(C)c(C)c2)C(c2cccc([N+](=O)[O-])c2)NC(=O)N1 (centres undefined) | > 6.25 | 63 | –
CC1=C(C(=O)Nc2cccc(C)c2C)C(c2cccc(Oc3ccccc3)c2)NC(=O)N1 (centres undefined) | > 6.25 | 65 | –
CC1=C(C(=O)Nc2cc(C)ccc2C)C(c2ccc(Cl)cc2)NC(=O)N1 (centres undefined) | > 6.25 | 6 | –
CC1=C(C(=O)Nc2cc(Cl)ccc2Cl)C(c2ccc([N+](=O)[O-])cc2)NC(=O)N1 (centres undefined) | > 6.25 | 18 | –
CC1=C(C(=O)Nc2ccccc2Cl)C(c2ccc(Cl)cc2)NC(=O)N1 (centres undefined) | > 6.25 | 26 | –
CC1=C(C(=O)Nc2cc(C)ccc2C)C(c2ccc([N+](=O)[O-])cc2)NC(=O)N1 (centres undefined) | > 6.25 | 4 | –
CC1=C(C(=O)Nc2ccccc2)C(c2ccc([N+](=O)[O-])cc2)NC(=O)N1 (centres undefined) | > 6.25 | 25 | –
CC1=C(C(=O)Nc2ccccc2C)C(c2cccc([N+](=O)[O-])c2)NC(=O)N1 (centres undefined) | > 6.25 | 6 | –
CC1=C(C(=O)Nc2ccc(F)cc2)C(c2cccc(Cl)c2)NC(=O)N1 (centres undefined) | > 6.25 | 38 | –
CCCc1cc(=O)oc2c3c(c4c(c12)OC(C)(C)C=C4)O[C@H](C)[C@@H](C)[C@@H]3O [CALANOLIDE A] | – | – | 3.13 (≈ 8.45 µM)
CC1=C(C(=O)Nc2ccccc2F)C(c2ccc([N+](=O)[O-])cc2)NC(=O)N1 (centres undefined) | > 6.25 | 4 | –
CC1=C(C(=O)Nc2ccccc2Cl)C(c2cccc([N+](=O)[O-])c2)NC(=O)N1 (centres undefined) | > 6.25 | 26 | –
CC1=C(C(=O)Nc2ccc(F)c(Cl)c2)C(c2cccc(Cl)c2)NC(=O)N1 (centres undefined) | > 6.25 | 48 | –
CC1=C(C(=O)Nc2ccc(C)cc2)C(c2cccc([N+](=O)[O-])c2)NC(=O)N1 (centres undefined) | > 6.25 | 28 | –
COc1ccc(C2NC(=O)NC(C)=C2C(=O)Nc2cc(C)ccc2C)cc1 (centres undefined) | > 6.25 | 2 | –
CC1=C(C(=O)Nc2cccc([N+](=O)[O-])c2)C(c2ccc(O)cc2)NC(=O)N1 (centres undefined) | > 6.25 | 2 | –
CC1=C(C(=O)Nc2ccc(C)c(C)c2)C(c2cccc(Oc3ccccc3)c2)NC(=O)N1 (centres undefined) | > 6.25 | 32 | –
CC1=C(C(=O)Nc2cc(C)ccc2C)C(c2cccc(Oc3ccccc3)c2)NC(=O)N1 (centres undefined) | > 6.25 | 27 | –
CC1=C(C(=O)Nc2ccc(F)cc2)C(c2cccc([N+](=O)[O-])c2)NC(=O)N1 (centres undefined) | > 6.25 | 30 | –
